Each compound was assayed against T1, AXL kinase (Homo sapiens, UniProt P30530) (assay: IC50 test on AXL kinase (Z′-LYTE FRET kinase activity detection)). Settings: Z′-LYTE FRET peptide assay, 1 h reaction.
T1 construct: purchased Invitrogen PV4803
T1 sequence (P30530 26-894): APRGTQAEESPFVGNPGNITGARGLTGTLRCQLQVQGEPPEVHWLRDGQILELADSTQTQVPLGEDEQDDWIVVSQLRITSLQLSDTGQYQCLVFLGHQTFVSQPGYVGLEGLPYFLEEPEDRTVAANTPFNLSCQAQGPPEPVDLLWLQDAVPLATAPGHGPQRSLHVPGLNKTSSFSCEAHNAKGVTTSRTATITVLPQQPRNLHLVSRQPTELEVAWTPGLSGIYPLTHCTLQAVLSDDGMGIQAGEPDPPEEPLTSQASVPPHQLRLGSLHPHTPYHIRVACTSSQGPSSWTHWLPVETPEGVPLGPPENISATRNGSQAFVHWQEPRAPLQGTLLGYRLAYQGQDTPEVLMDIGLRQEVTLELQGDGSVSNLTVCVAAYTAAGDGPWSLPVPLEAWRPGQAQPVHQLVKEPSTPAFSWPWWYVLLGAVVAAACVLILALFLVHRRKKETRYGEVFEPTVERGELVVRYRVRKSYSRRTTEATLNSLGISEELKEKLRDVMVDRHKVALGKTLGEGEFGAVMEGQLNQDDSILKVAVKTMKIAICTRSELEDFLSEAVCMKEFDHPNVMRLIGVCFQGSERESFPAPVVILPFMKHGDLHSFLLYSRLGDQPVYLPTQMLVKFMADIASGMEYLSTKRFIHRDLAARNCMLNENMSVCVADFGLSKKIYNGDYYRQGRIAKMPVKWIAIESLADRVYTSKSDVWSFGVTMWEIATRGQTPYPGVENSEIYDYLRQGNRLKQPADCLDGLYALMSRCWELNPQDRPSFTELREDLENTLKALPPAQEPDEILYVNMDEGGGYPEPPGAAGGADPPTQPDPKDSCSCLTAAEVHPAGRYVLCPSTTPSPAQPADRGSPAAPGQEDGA
Assay type: biochemical
Source text: Kinase activity detection: The activity of compounds on kinases was detected by a secondary reaction which used the Z′-LYTE™ technique (a detection using fluorescence, enzyme coupling, and based on differences in susceptibility of phosphorylated and non-phosphorylated polypeptides to proteolytic cleavage), followed the fluorescence resonance energy transfer (FRET) principle, and used Z′-LYTE™ FRET peptide substrates (Invitrogen, Z′-LYTE™ KINASE ASSAY KIT—TYR 2 PEPTIDE, PV3191). AXL kinase (invitrogen, PV4803) was diluted stepwise, FRET peptide was then added, followed by ATP, then by compounds at different concentrations, reacted for 1 h, site-specific proteases were then added to recognize and cleave non-phosphorylated FRET peptides, reacted for 1 h, and […] at 445 nm and 520 nm were detected using excitation wavelength of 400 nm.

Row | SMILES | IC50 [µM]
1 | COc1cc2ncnc(Oc3ccc(NC(=O)c4cn(C5CC5)c5c(F)c(N6CC(C)NC(C)C6)c(F)c(N)c5c4=O)cc3F)c2cc1OC (stereo not drawn) [TL4830044, 5-amino-1-cyclopropyl-N-(4-(6,7-dimethoxyquinazolin-4-yloxy)-3-fluorophenyl)-7-(3,5-dimethylpiperazin-1-yl)-6,8-difluoro-4-oxo-1,4-dihydroquinoline-3-carboxamide] | 0.503
2 | Cc1ccc2c(c1)c(=O)c(C(=O)Nc1ccc(Oc3ncnc4[nH]cc(-c5ccccc5)c34)c(F)c1)cn2C [TL4800167, N-(3-fluoro-4-(5-phenyl-7H-pyrrolo[2,3-d]pyrimidin-4-yloxy)phenyl)-1,6-dimethyl-4-oxo-1,4-dihydroquinoline-3-carboxamide] | 0.152
3 | CC1CCc2c(N3CCC(O)CC3)c(F)cc3c(=O)c(C(=O)Nc4ccc(Oc5ncnc6[nH]cc(-c7ccccc7)c56)c(F)c4)cn1c23 (stereo not drawn) [GDL5000076, 9-fluoro-N-(3-fluoro-4-((5-phenyl-7H-pyrrolo[2,3-d]pyrimidin-4-yl)oxy)phenyl)-8-(4-hydroxypiperidin-1-yl)-5-methyl-1-oxo-1,5,6,7-tetrahydropyrido[3,2,1-ij]quinoline-2-carboxamide] | 0.627
4 | Cc1ccc2[nH]c(C)c(C(=O)Nc3ccc(Oc4ncnc5[nH]cc(-c6ccccc6)c45)c(F)c3)c(=O)c2c1 [TL4800025, N-(3-fluoro-4-((5-phenyl-7H-pyrrolo[2,3-d]pyrimidin-4-yl)oxy)phenyl)-2,6-dimethyl-4-oxo-1,4-dihydroquinoline-3-carboxamide] | 0.557
5 | Cc1c(C(=O)Nc2ccc(Oc3ncnc4[nH]cc(-c5ccccc5)c34)c(F)c2)c(=O)c2cc(-c3ccccc3)ccc2n1C [TL50163, N-(3-fluoro-4-(5-phenyl-7H-pyrrolo[2,3-d]pyrimidin-4-yloxy)phenyl)-1,2-dimethyl-4-oxo-6-phenyl-1,4-dihydroquinoline-3-carboxamide] | > 10
6 | Cc1c(C(=O)Nc2ccc(Oc3ccnc4[nH]nc(-c5ccccc5)c34)c(F)c2)c(=O)c2cc(Cl)ccc2n1C [TL50025, 6-chloro-N-(3-fluoro-4-((3-phenyl-1H-pyrazolo[3,4-b]pyridin-4-yl)oxy)phenyl)-1,2-dimethyl-4-oxo-1,4-dihydroquinoline-3-carboxamide] | 0.569
7 | Cc1c(C(=O)Nc2ccc(Oc3ncnc4[nH]cc(-c5ccccc5)c34)c(F)c2)c(=O)c2cc(C3=CCCC3)ccc2n1C [TL50160, 6-cyclopentenyl-N-(3-fluoro-4-((5-phenyl-7H-pyrrolo[2,3-d]pyrimidin-4-yl)oxy)phenyl)-1,2-dimethyl-4-oxo-1,4-dihydroquinoline-3-carboxamide] | 4.53
8 | Cc1c(C(=O)Nc2ccc(Oc3ncnc4[nH]cc(-c5ccccc5)c34)c(F)c2)c(=O)c2cc(-c3cnn(C4CCNCC4)c3)ccc2n1C [TL50180] | > 10
9 | CCn1cc(C(=O)Nc2ccc(Oc3ncnc4cc(OC)c(OC)cc34)c(F)c2)c(=O)c2cc(F)c(N3CCNCC3)nc21 [GDL5000102, N-(4-((6,7-dimethoxyquinazolin-4-yl)oxy)-3-fluorophenyl)-1-ethyl-6-fluoro-4-oxo-7-(piperazin-1-yl)-1,4-dihydro-1,8-naphthyridine-3-carboxamide] | 0.064
10 | Cc1cc2c3c(c1)c(=O)c(C(=O)Nc1ccc(Oc4ncnc5[nH]cc(-c6ccccc6)c45)c(F)c1)cn3CCC2 [TL4800160, N-(3-fluoro-4-((5-phenyl-7H-pyrrolo[2,3-d]pyrimidin-4-yl)oxy)phenyl)-9-methyl-1-oxo-1,5,6,7-tetrahydropyrido[3,2,1-ij]quinoline-2-carboxamide] | 0.129
11 | Cc1c(C(=O)Nc2ccc(Oc3ncnc4[nH]cc(-c5ccccc5)c34)c(F)c2)c(=O)c2c(Cl)cccc2n1C [TL50081, 5-chloro-N-(3-fluoro-4-((5-phenyl-7H-pyrrolo[2,3-d]pyrimidin-4-yl)oxy)phenyl)-1,2-dimethyl-4-oxo-1,4-dihydroquinoline-3-carboxamide] | > 10

Other lines, results leading:

Row | IC50 [µM] | SMILES
12 | 0.157 | CCc1ccc2c(c1)c(=O)c(C(=O)Nc1ccc(Oc3ncnc4[nH]ccc34)c(F)c1)c(C)n2C [TL4800147]
13 | 0.099 | COc1ccc2c(c1)c(=O)c(C(=O)Nc1ccc(Oc3ncnc4[nH]cc(-c5ccccc5)c34)c(F)c1)c(C)n2C [TL4800005, N-(3-fluoro-4-((5-phenyl-7H-pyrrolo[2,3-d]pyrimidin-4-yl)oxy)phenyl)-6-methoxy-1,2-dimethyl-4-oxo-1,4-dihydroquinoline-3-carboxamide]
14 | > 10 | Cc1c(C(=O)Nc2ccc(Oc3ncnc4[nH]cc(-c5ccccc5)c34)c(F)c2)c(=O)c2ccc(Cl)cc2n1C [TL50080, 7-chloro-N-(3-fluoro-4-((5-phenyl-7H-pyrrolo[2,3-d]pyrimidin-4-yl)oxy)phenyl)-1,2-dimethyl-4-oxo-1,4-dihydroquinoline-3-carboxamide]
15 | 0.056 | CCc1ccc2c(c1)c(=O)c(C(=O)Nc1ccc(Oc3ncnc4[nH]cc(-c5ccccc5)c34)c(F)c1)cn2C [TL4800178, 6-ethyl-N-(3-fluoro-4-(5-phenyl-7H-pyrrolo[2,3-d]pyrimidin-4-yloxy)phenyl)-1-methyl-4-oxo-1,4-dihydroquinoline-3-carboxamide]
16 | 1.89 | Cc1c(C(=O)Nc2ccc(Oc3ncnc4[nH]cc(-c5ccccc5)c34)c(F)c2)c(=O)c2cc(Cl)ccc2n1C [TL50053, 6-chloro-N-(3-fluoro-4-((5-phenyl-7H-pyrrolo[2,3-d]pyrimidin-4-yl)oxy)phenyl)-1,2-dimethyl-4-oxo-1,4-dihydroquinoline-3-carboxamide]
17 | 0.146 | CCn1c(C)c(C(=O)Nc2ccc(Oc3ncnc4[nH]cc(-c5ccccc5)c34)c(F)c2)c(=O)c2cc(C)ccc21 [TL4800067, 1-ethyl-N-(3-fluoro-4-(5-phenyl-7H-pyrrolo[2,3-d]pyrimidin-4-yloxy)phenyl)-2,6-dimethyl-4-oxo-1,4-dihydroquinoline-3-carboxamide]
18 | 4.38 | CCc1ccc2c(c1)c(=O)c(C(=O)Nc1ccc(Oc3ccnc(C(N)=O)c3)c(F)c1)c(C)n2C [GDL5000045, N-(4-(2-carbamoylpyridin-4-yloxy)-3-fluorophenyl)-6-ethyl-1,2-dimethyl-4-oxo-1,4-dihydroquinoline-3-carboxamide]
19 | 2.63 | Cc1c(C(=O)Nc2ccc(Oc3ccnc4[nH]ccc34)c(F)c2)c(=O)c2cc(Cl)ccc2n1C [TL50090, N-(4-((1H-pyrrolo[2,3-b]pyridin-4-yl)oxy)-3-fluorophenyl)-6-chloro-1,2-dimethyl-4-oxo-1,4-dihydroquinoline-3-carboxamide]
20 | 0.078 | CCc1c(C(=O)Nc2ccc(Oc3ncnc4[nH]cc(-c5ccccc5)c34)c(F)c2)c(=O)c2cc(C)ccc2n1C [TL4800139, 2-ethyl-N-(3-fluoro-4-(5-phenyl-7H-pyrrolo[2,3-d]pyrimidin-4-yloxy)phenyl)-1,6-dimethyl-4-oxo-1,4-dihydroquinoline-3-carboxamide]
21 | > 10 | Cc1c(C(=O)Nc2ccc(Oc3ncnc4[nH]cc(-c5ccccc5)c34)c(F)c2)c(=O)c2ccccc2n1C [TL50054, N-(3-fluoro-4-((5-phenyl-7H-pyrrolo[2,3-d]pyrimidin-4-yl)oxy)phenyl)-1,2-dimethyl-4-oxo-1,4-dihydroquinoline-3-carboxamide]
22 | 0.476 | CCCCn1c(C)c(C(=O)Nc2ccc(Oc3ncnc4[nH]cc(-c5ccccc5)c34)c(F)c2)c(=O)c2cc(C)ccc21 [TL4800080, 1-butyl-N-(3-fluoro-4-((5-phenyl-7H-pyrrolo[2,3-d]pyrimidin-4-yl)oxy)phenyl)-2,6-dimethyl-4-oxo-1,4-dihydroquinoline-3-carboxamide]
23 | 0.105 | CCc1ccc2c(c1)c(=O)c(C(=O)Nc1ccc(Oc3ncnc4[nH]cc(-c5ccccc5)c34)cc1)c(C)n2C [TL4830014, 6-ethyl-1,2-dimethyl-4-oxo-N-(4-((5-phenyl-7H-pyrrolo[2,3-d]pyrimidin-4-yl)oxy)phenyl)-1,4-dihydroquinoline-3-carboxamide]
24 | 0.0011 | CCc1ccc2c(c1)c(=O)c(C(=O)Nc1ccc(Oc3ncnc4cc(OCCCN(C)C)c(OC)cc34)c(F)c1)c(C)n2C [TL4830076, N-(4-(7-(3-(dimethylamino)propoxy)-6-methoxyquinazolin-4-yloxy)-3-fluorophenyl)-6-ethyl-1,2-dimethyl-4-oxo-1,4-dihydroquinoline-3-carboxamide]

From patent publication US10683278B2 (JINAN UNIVERSITY, priority 2015, dated 2020)
